Where two headings read alike, the source gives them in different places.
How the values were obtained:
[1] = biological target: T1, EWS-FLI1/RHA interaction in TC32 cells (Homo sapiens, UniProt Q01543+Q01844); experiment: Co-immunoprecipitation of EWS-FLI1 and RHA from treated TC32 cells, western blot densitometry; format: cell-based; settings: 15 hours; for RHA coimmunoprecipitated with EWS-FLI1: 10μM; for IC50: 0.3 to 10μM, read-out: IC50, densitometry of RHA relative to FLI1
T1 construct: FLI1 C-terminal portion (fusion partner, Q01543); endogenous in cells; host or cells: TC32
T1 sequence (Q01844+Q01543 with tags, fused parts or gaps): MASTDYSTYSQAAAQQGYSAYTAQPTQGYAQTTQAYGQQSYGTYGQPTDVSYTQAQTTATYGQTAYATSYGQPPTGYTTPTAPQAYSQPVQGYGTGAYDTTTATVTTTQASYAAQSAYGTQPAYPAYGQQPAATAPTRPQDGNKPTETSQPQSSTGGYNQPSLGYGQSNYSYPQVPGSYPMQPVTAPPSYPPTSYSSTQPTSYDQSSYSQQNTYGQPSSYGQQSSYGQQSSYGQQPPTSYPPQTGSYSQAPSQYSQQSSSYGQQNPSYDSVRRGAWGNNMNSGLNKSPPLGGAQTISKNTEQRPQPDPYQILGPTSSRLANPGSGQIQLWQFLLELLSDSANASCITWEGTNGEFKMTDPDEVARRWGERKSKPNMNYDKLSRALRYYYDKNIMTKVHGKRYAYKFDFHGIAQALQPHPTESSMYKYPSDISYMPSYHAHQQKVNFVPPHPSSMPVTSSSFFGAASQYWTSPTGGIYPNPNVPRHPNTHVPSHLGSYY
Protocol: TC32 were grown to ~70% confluency and cells were treated for 15 hours with small molecule. Nuclear lysate was collected using the Active Motif Magnetic Co-IP Kit (Active Motif). Protein concentration was determined using bicinchoninic acid protein assay for each lysate (Pierce) and lysate was bound to 1μg of antibody overnight at 4C on a rotating axis with addition of same concentration of small molecule as used for 15 hour treatment. Magnetic beads (Active Motif) were added to the lysates and tumbled for 2 hours at 4C. Immunoprecipitated proteins were resolved using 10% PAGE and transferred to a polyvinylidene difluoride membrane (Millipore). Membranes were blocked in 5% nonfat dry milk in TTBS (20mM Tris-HCl, 150mM NaCl, 0.5% Tween 20) for 2 hours. FLI1 (Santa Cruz Biotechnologies) and RHA (Abcam) antibodies were used at 1:1000 dilutions in 5% nonfat dry milk for 2 hours. Horseradish peroxidase-linked anti-rabbit antibody (GE Healthcare) was added for 1 hour. Detection was carried out using Millipore Immobilon Western Chemiluminescent HRP Substrate per the manufacturer's instructions (Millipore Corp.). Chemiluminescence was detected using a Fujifilm LAS-3000 imaging system. Densitometry values were obtained using ImageJ software.

EWS-FLI1 and RHA = experiment: ELISA of binding between EWS-FLI1 and RHA
Protocol: EWS-FLI1 was used to coat the surface of a 96 well plate (MaxiSorb) at a concentration of 150ng/well in 100μL buffer containing 20mM Tris, 500mM sodium chloride, and 1M imidazole. Following overnight incubation, the plate was blocked with 4% BSA in PBS and washed with PBS + 0.1% Tween-20. Small molecules were added at concentrations of 1μM, 3μM, 10μM, and 30μM, followed by RHA (300ng/well) and allowed to incubate overnight. Following washing, incubation with RHA antibody (Everest) and anti-goat secondary, protein binding was detected using a TMB Peroxidase EIA Substrate Kit (Bio-Rad) per the manufacturer's instructions.

ASPC1 cells = experiment: Cellular proliferation (WST) assay, ASPC1; format: cell-based; settings: Homo sapiens, 72 h; ASPC1, pancreatic; read-out: IC50 at 3 days (+/− SEM)
Protocol: (§1) TC32, TC71, RDES, MMH-ES-1, STA-ET 7.2, A4573, and PC3 cells were grown in RPMI with 10% FBS and 1% HEPES. SKES cells were grown in McCoy's 5A medium with 15% FBS. MCF7, MDA-MB-231, PANC1, and ASPC1 cells were grown in colorless DMEM with 10% FBS. Cells were grown at a plating density of 5,000 – 15,000 cells/well, depending on cell line, in a 96-well plate. Small molecule or vehicle alone (DMSO) were added to cells in appropriate growth media the day after plating. After three days, viable cells were quantified using WST (Roche) according to the manufacturer's protocol. IC50 values were calculated by sigmoidal dose-response curve fit using Prism Graphpad 4.0.

MMH-ES-1 cells = experiment: Cellular proliferation (WST) assay, MMH-ES-1; format: cell-based; settings: 72 h; MMH-ES-1, ESFT (Type 2); read-out: IC50 at 3 days (+/− SEM)
Protocol: as §1

[2] = system: non-ESFT cell lines (PC3, MCF7, MDA-MB-231, PANC1, ASPC1); experiment: Cellular proliferation (WST) assay, panel of five non-ESFT cell lines; format: cell-based; settings: 72 h
Protocol: as §1

ESFT cell lines = experiment: Cellular proliferation (WST) assay, panel of seven ESFT cell lines; format: cell-based; settings: 72 h
Protocol: as §1

TC71 cells = experiment: Cellular proliferation (WST) assay, TC71; format: cell-based; settings: for IC50: TC-71, 72 h, TC71, ESFT (Type 1), read-out: IC50 at 3 days (+/− SEM)
Protocol: as §1

MCF7 cells = experiment: Cellular proliferation (WST) assay, MCF7; format: cell-based; settings: Homo sapiens, 72 h; MCF7, breast; read-out: IC50 at 3 days (+/− SEM)
Protocol: as §1

MDA-MB-231 cells = experiment: Cellular proliferation (WST) assay, MDA-MB-231; format: cell-based; settings: Homo sapiens, 72 h; MDA-MB-231, breast; read-out: IC50 at 3 days (+/− SEM)
Protocol: as §1

A4573 cells = experiment: Cellular proliferation (WST) assay, A4573; format: cell-based; settings: 72 h; A4573, ESFT (Type 3); read-out: IC50 at 3 days (+/− SEM)
Protocol: as §1

STA-ET 7.2 cells = experiment: Cellular proliferation (WST) assay, STA-ET 7.2; format: cell-based; settings: 72 h; STA-ET 7.2, ESFT (Type 2); read-out: IC50 at 3 days (+/− SEM)
Protocol: as §1

TC32 cells = experiment: Cellular proliferation (WST) assay, TC32; format: cell-based; settings: Homo sapiens, TC-32, 72 h; TC32, ESFT (Type 1); read-out: IC50 at 3 days (+/− SEM)
Protocol: as §1

[3] = read-out: Mean IC50 at 3 days (+/− SEM), mean over five non-ESFT cell lines
[4] = mean over seven ESFT cell lines, read-out: Mean IC50 at 3 days (+/− SEM)
[5] = seven EWS-FLI1 expressing cell lines, three days, read-out: range of mean IC50 values across ESFT cell lines
[6] = as little as 1μM small molecule

SMILES | RHA coimmunoprecipitated with EWS-FLI1 [1] | inhibition of EWS-FLI1/RHA binding (EWS-FLI1 and RHA; 30μM) | IC50 (ASPC1 cells) [µM] | IC50 (MMH-ES-1 cells) [nM] | IC50 [2, 3] [µM] | IC50 (ESFT cell lines; [4]) [nM] | IC50 (ESFT cell lines; [5]) [nM] | IC50 (TC71 cells) [nM] | IC50 (MCF7 cells) [µM] | IC50 (MDA-MB-231 cells) [nM] | IC50 (A4573 cells) [nM] | IC50 (STA-ET 7.2 cells) [nM] | IC50 (TC32 cells) [nM] | IC50 [1] [µM] | inhibition of EWS-FLI1/RHA binding (EWS-FLI1 and RHA; [6]) | fold-difference in IC50 between the racemic and the active enantiomer (TC71 cells; TC71 cells) | IC50 ([2]; read-out: Mean IC50 at 3 days (+/− SEM)) [µM]
COc1ccc(C(=O)C[C@]2(O)C(=O)Nc3c(Cl)ccc(Cl)c32)cc1 [(R)-YK-4-279] | coimmunoprecipitation of EWS-FLI1 with RHA | does not inhibit the binding | > 30 | 26000 | > 30 | 18500 | 11700 to 26000 | 20900 | > 30 | 22000 | 11700 | 21200 | 16300 | – | – | – | –
COc1ccc(C(=O)C[C@@]2(O)C(=O)Nc3c(Cl)ccc(Cl)c32)cc1 [(S)-YK-4-279] | significant reduction in complexed RHA | – | 8.16 | 340 | 6.86 | 340 | 160 to 870 | 160 | 19.5 | 1170 | 230 | 310 | 280 | 1.8 | able to inhibit the protein-protein interaction | more than a log-fold difference | –
COc1ccc(C(=O)CC2(O)C(=O)Nc3c(Cl)ccc(Cl)c32)cc1 (stereo not drawn) [YK-4-279] | significant reduction in complexed RHA | – | 14.3 | 940 | – | 1020 | 330 to 1830 | 1830 | 22.8 | 820 | 1460 | 600 | 940 | 4.9 | able to inhibit the protein-protein interaction | – | 8.88
